The first assay has as its system HCV 1b-377-neo replicon cells. In words: HCV replicon assay, HCV 1b-377-neo replicon cells (1b FRET). Particulars: HCV 1b-377-neo replicon cells; HCV 1b genotype. The assay is classed as cell-based, Hepatitis C virus genotype 1b. Put shortly:
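Compounds tested in HCV genotype 1b-377-neo replicon cells with a FRET read-out. Cells resistant to a reference NS5A inhibitor through a Y2065H NS5A mutation were run alongside wild-type cells.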
In general terms: In antiviral work, replicon cells carry a viral genome segment that copies itself.
On to `COC(=O)N[C@@H](C(=O)N1CCC[C@H]1c1ncc(-c2ccc(-c3ccc(-c4cnc([C@@H]5CCCN5C(=O)Cc5ccccc5Cl)[nH]4)cc3)cc2)[nH]1)c1ccccc1` [Example 84-66, methyl ((1R)-2-((2S)-2-(5-(4′-(2-((2S)-1-((2-chlorophenyl)acetyl)-2-pyrrolidinyl)-1H-imidazol-5-yl)-4-biphenylyl)-1H-imidazol-2-yl)-1-pyrrolidinyl)-2-oxo-1-phenylethyl)carbamate], for which the “EC50 range against HCV 1b (Table 2, Range)” value was “C-D”.

With `COC(=O)NC(C)(C)C(=O)N1CCC[C@H]1c1ncc(-c2ccc(-c3ccc(-c4cnc([C@@H]5CCCN5C(=O)C(C)(C)NC(=O)OC)[nH]4)cc3)cc2)[nH]1` [Example M7, methyl (2-((2S)-2-(5-(4′-(2-((2S)-1-(2-((methoxycarbonyl)amino)-2-methylpropanoyl)-2-pyrrolidinyl)-1H-imidazol-5-yl)-4-biphenylyl)-1H-imidazol-2-yl)-1-pyrrolidinyl)-1,1-dimethyl-2-oxoethyl)carbamate], the “EC50 range against HCV 1b (Table 2, Range)” value is “>A”.

The same assay, now with this note: HCV 1b-377-neo replicon cells; HCV 1b genotype; read-out: EC50 range against HCV 1b (Table 2, Range).
By EC50 is commonly meant the concentration needed to bring the measured effect to its halfway point. Consider “(1R)-N,N-dimethyl-2-((2S)-2-(5-(4′-(2-((2S)-1- ((2R)-2-(4-morpholinyl)-2-phenylacetyl)-2- pyrrolidinyl)-1H-imidazol-5-yl)-4-biphenylyl)- 1H-imidazol-2-yl)-1-pyrrolidinyl)-2-oxo-1- phenylethanamine [Example 89]”, for which the concentration for a half-maximal effect (EC50) fell in the range of 0.001 to 0.999 nM.

As to `CN(C)[C@@H](C(=O)N1CCC[C@H]1c1nc(-c2ccc(-c3ccc(-c4cn(C)c([C@@H]5CCCN5C(=O)[C@@H](c5ccccc5)N(C)C)n4)cc3)cc2)cn1C)c1ccccc1` (single isomer, unassigned) [151 isomer 2], the concentration for a half-maximal effect (EC50) was 100 to 999 nM.

For the compound `O=C(Cc1ccccc1)N1CCC[C@H]1c1ncc(-c2ccc(-c3ccc(-c4cnc([C@@H]5CCCN5C(=O)Cc5ccccc5)[nH]4)cc3)cc2)[nH]1` [Example 7, 5,5′-(4,4′-biphenyldiyl)bis(2-((2)S-1-(phenylacetyl)-2-pyrrolidinyl)-1H-imidazole)], the half-maximal effective concentration (EC50) lay within 0.001 to 0.999 nM.

In the case of `CC[C@@H](NC(=O)OC)C(=O)N1CCC[C@H]1c1ncc(-c2ccc(-c3ccc(-c4cnc([C@@H]5CCCN5C(=O)[C@@H](c5ccccc5)N(CC)CC)[nH]4)cc3)cc2)[nH]1` [Example M54, methyl ((1R)-1-(((2S)-2-(5-(4′-(2-((2S)-1-((2R)-2-(diethylamino)-2-phenylacetyl)-2-pyrrolidinyl)-1H-imidazol-5-yl)-4-biphenylyl)-1H-imidazol-2-yl)-1 pyrrolidinyl)carbonyl)propyl) carbamate], the EC50 was 1 to 99 nM.

Staying with this assay, now noted: Hepatitis C virus, HCV 1b-377-neo replicon cells; HCV 1b genotype; read-out: EC50 range against HCV 1b (Table 2, Range).
For the compound `COC(=O)N[C@@H](Cc1c[nH]nn1)C(=O)N1CCC[C@H]1c1ncc(-c2ccc(-c3ccc(-c4cnc([C@@H]5CCCN5C(=O)[C@@H](NC(=O)OC)C(C)C)[nH]4)cc3)cc2)[nH]1` [cj-34, methyl ((1S)-1-(((2S)-2-(5-(4′-(2-((2S)-1-((2S)-2-((methoxycarbonyl)amino)-3-(1H-1,2,3-triazol-4-yl)propanoyl)-2-pyrrolidinyl)-1H-imidazol-5-yl)-4-biphenylyl)-1H-imidazol-2-yl)-1-pyrrolidinyl)carbonyl)-2-methylpropyl)carbamate], the EC50 is 0.001 to 0.999 nM.

Regarding `COC(=O)N[C@H](C(=O)N1CCC[C@H]1c1ncc(-c2ccc(-c3ccc(-c4cnc([C@@H]5CCCN5C(=O)[C@@H](NC5=NCCN5)C(C)C)[nH]4)cc3)cc2)[nH]1)C(C)C` [cj-11e, methyl ((1S)-1-(((2S)-2-(5-(4′-(2-((2S)-1-(N-(4,5-dihydro-1H-imidazol-2-yl)-L-valyl)-2-pyrrolidinyl)-1H-imidazol-5-yl)-4-biphenylyl)-1H-imidazol-2-yl)-1-pyrrolidinyl)carbonyl)-2-methylpropyl)carbamate], the half-maximal effective concentration (EC50) fell in the range of 1000 to 10000 nM.

Regarding `COC(=O)N[C@@H](Cc1cscn1)C(=O)N1CCC[C@H]1c1ncc(-c2ccc(-c3ccc(-c4cnc([C@@H]5CCCN5C(=O)[C@H](Cc5cscn5)NC(=O)OC)[nH]4)cc3)cc2)[nH]1` [cj-153, methyl ((1S)-2-((2S)-2-(5-(4′-(2-((2S)-1-((2S)-2-((methoxycarbonyl)amino)-3-(1,3-thiazol-4-yl)propanoyl)-2-pyrrolidinyl)-1H-imidazol-5-yl)-4-biphenylyl)-1H-imidazol-2-yl)-1-pyrrolidinyl)-2-oxo-1-(1,3-thiazol-4-ylmethyl)ethyl)carbamate], the 50% effective concentration (EC50) is 0.001 to 0.999 nM.

Turning to `COC(=O)N[C@H](C(=O)N1CCC[C@H]1c1ncc(-c2ccc(-c3ccc(-c4cnc([C@@H]5CCCN5C(=O)[C@@H](NC(=O)OC)[C@H](C)CO)[nH]4)cc3)cc2)[nH]1)C(C)C` [Example M107], the EC50 is 1 to 99 nM.

In the case of `CCC(=O)N1CCC[C@H]1c1ncc(-c2ccc(-c3ccc(-c4cnc([C@@H]5CCCN5C(=O)CC)[nH]4)cc3)cc2)[nH]1` [Example 10, 5,5′-(4,4′-biphenyldiyl)bis(2-((2S)-1-propionyl-2-pyrrolidinyl)-1H-imidazole)], the EC50 was in the range of 1 to 99 nM.

For `COC(=O)N[C@H](C(=O)N1CCC[C@H]1c1nc(-c2ccc(-c3ccc(-c4cnc([C@@H]5CCCN5C(=O)[C@H](NC(=O)OC)c5ccccc5)[nH]4)c(F)c3)cc2F)c[nH]1)C1CC1` [Example D66, methyl ((1S)-1-cyclopropyl-2-((2S)-2-(5-(3,3′-difluoro-4′-(2-((2S)-1-((2R)-2-((methoxycarbonyl)amino)-2-phenylacetyl)-2-pyrrolidinyl)-1H-imidazol-5-yl)-4-biphenylyl)-1H-imidazol-2-yl)-1-pyrrolidinyl)-2-oxoethyl)carbamate], the concentration for a half-maximal effect (EC50) is 0.001 to 0.999 nM.

Consider `COC(=O)N[C@@H](C(=O)N1CCC[C@H]1c1ncc(-c2ccc(-c3ncc(-c4cnc([C@@H]5CCCN5C(=O)[C@@H](c5ccccc5)N5CCCCC5)[nH]4)cn3)cc2)[nH]1)c1ccccc1` [Example 152l-3], for which the half-maximal effective concentration (EC50) was in the range of 0.001 to 0.999 nM.

For the compound `COC(=O)NCC(=O)N1[C@H](c2ncc(-c3ccc(-c4ccc(-c5cnc([C@@H]6C[C@@H]7C[C@@H]7N6C(=O)CNC(=O)OC)[nH]5)cc4)cc3)[nH]2)C[C@@H]2C[C@@H]21` [Example M129, methyl (2-((1S,3S,5S)-3-(5-(4′-(2-((1S,3S,5S)-2-(((methoxycarbonyl)amino)acetyl)-2-azabicyclo[3.1.0]hex-3-yl)-1H-imidazol-5-yl)-4-biphenylyl)-1H-imidazol-2-yl)-2-azabicyclo[3.1.0]hex-2-yl)-2-oxoethyl)carbamate], the EC50 lay in the range of 1000 to 10000 nM.

Consider `COCC[C@H](NC(=O)OC)C(=O)N1CCC[C@H]1c1ncc(-c2ccc(-c3ccc(-c4cnc([C@@H]5CCCN5C(=O)[C@H](C)NC(=O)OC)[nH]4)cc3)cc2)[nH]1` [cj-120, methyl ((1S)-3-methoxy-1-(((2S)-2-(5-(4′-(2-((2S)-1-(N-(methoxycarbonyl)-L-alanyl)-2-pyrrolidinyl)-1H-imidazol-5-yl)-4-biphenylyl)-1H-imidazol-2-yl)-1-pyrrolidinyl)carbonyl)propyl)carbamate], for which the EC50 was 0.001 to 0.999 nM.

Take `COC(=O)N[C@@H](C)C(=O)N1CCC[C@H]1c1ncc(-c2ccc(-c3ccc(-c4cnc([C@@H]5CCCN5C(=O)[C@@H]5CCN5C(=O)OC)[nH]4)cc3)cc2)[nH]1` [cj-49, methyl (2S)-2-(((2S)-2-(5-(4′-(2-((2S)-1-(N-(methoxycarbonyl)-L-alanyl)-2-pyrrolidinyl)-1H-imidazol-5-yl)-4-biphenylyl)-1H-imidazol-2-yl)-1-pyrrolidinyl)carbonyl)-1-azetidinecarboxylate]: the EC50 lay within 1 to 99 nM.

As to `CC[C@@H](C(=O)N1CCC[C@H]1c1ncc(-c2ccc(-c3ccc(-c4cnc([C@@H]5CCCN5C(=O)[C@@H](NC(=O)OC)C(C)C)[nH]4)cc3)cc2)[nH]1)N(CC)CC` [Example M86, methyl ((1S)-1-(((2S)-2-(5-(4′-(2-((2S)-1-((2S)-2-(diethylamino)butanoyl)-2-pyrrolidinyl)-1H-imidazol-5-yl)-4-biphenylyl)-1H-imidazol-2-yl)-1-pyrrolidinyl)carbonyl)-2-methylpropyl)carbamate], the half-maximal effective concentration (EC50) was 1 to 99 nM.

With `COC(=O)N[C@@H](C(=O)N1CCC[C@H]1c1ncc(-c2ccc(-c3ncc(-c4cnc([C@@H]5CCCN5C(=O)[C@H](NC(=O)OC)c5ccccc5)[nH]4)cn3)cc2)[nH]1)c1ccccc1` [Example 152j-2, methyl ((1R)-2-((2S)-2-(5-(2-(4-(2-((2S)-1-((2R)-2-((methoxycarbonyl)amino)-2-phenylacetyl)-2-pyrrolidinyl)-1H-imidazol-5-yl)phenyl)-5-pyrimidinyl)-1H-imidazol-2-yl)-1-pyrrolidinyl)-2-oxo-1-phenylethyl)carbamate], the 50% effective concentration (EC50) lay in the range of 0.001 to 0.999 nM.

In the case of `CC(C)(C)OC(=O)N1CC(C(=O)N2CCC[C@H]2c2ncc(-c3ccc(-c4ccc(-c5cnc([C@@H]6CCCN6C(=O)[C@@H](c6ccccc6)N6CCCCC6)[nH]5)cc4)cc3)[nH]2)C1` [Example 107-12, tert-butyl 3-(((2S)-2-(5-(4′-(2-((2S)-1-((2R)-2-phenyl-2-(1-piperidinyl)acetyl)-2-pyrrolidinyl)-1H-imidazol-5-yl)-4-biphenylyl)-1H-imidazol-2-yl)-1-pyrrolidinyl)carbonyl)-1-azetidinecarboxylate], the 50% effective concentration (EC50) lay within 0.001 to 0.999 nM.

As to `COC(=O)N[C@@H](C(=O)N1CCC[C@H]1c1ncc(-c2ccc(-c3ccc(-c4cnc([C@@H]5CCCN5C(=O)C(c5csc(C)n5)N(C)C)[nH]4)cc3)cc2)[nH]1)c1ccccc1` (stereo partly drawn) [Example 84-48, methyl ((1R)-2-((2S)-2-(5-(4′-(2-((2S)-1-((dimethylamino)(2-methyl-1,3-thiazol-4-yl)acetyl)-2-pyrrolidinyl)-1H-imidazol-5-yl)-4-biphenylyl)-1H-imidazol-2-yl)-1-pyrrolidinyl)-2-oxo-1-phenylethyl)carbamate], the EC50 was 0.001 to 0.999 nM.

Values taken from US8574563B2 (Bristol-Myers Squibb Company, priority 2006, dated 2013).
